Data set [1] addresses T1, human recombinant dopamine transport binding sites (DAT) (Homo sapiens, UniProt Q01959).
T1 construct: NovaScreen, Hanover, Md; (contract laboratory that ran the assay)
In words: Radioligand binding assay, dopamine transporter (NovaScreen).

The nature of data set [2]: Stability under treatment with commercially available acids and bases. The following applies: 20° C. The format is physicochemical. On the procedure: For acids and bases (Table 59), 10 mg of Lys-Amp was mixed with 2 mL of each stock solution, and the solution was shaken at 20° C. For enzyme treatment (Table 60), 10 mg Lys-Amp was mixed with 5 mL of each enzyme cocktail, and the solution was shaken at 37° C. […] Many of the commercially available reagents also contained various solvents and/or surfactants.
Unless otherwise indicated, solutions were used directly from the container and were combined with neat Lys-Amp solid. Lewis Red Devil® Lye, Enforcer Drain Care® Septic Treatment, and Rid-X® Septic Treatment were prepared as saturated solutions in H2O. Enzymes used were purchased from Sigma and directly dissolved in water (3 mg/mL pepsin, 10 mg/mL pancreatin, 3 mg/mL pronase, 3 mg/mL esterase), while enzyme-containing nutraceuticals such as Omnigest® and VitälZym® were first either crushed or opened (1 tablet or capsule per 5 mL of H2O).

A short description of data set [3]: Stability under acidic conditions. The following applies: for d-amphetamine content released: reflux; for d-amphetamine released: acids; for Hydrolysis: reflux in concentrated HCl.
The nature of data set [4]: Stability under concentrated conditions (concentrated HCl, 10 N NaOH, elevated temperature).
The nature of data set [5]: Oral dose-escalation abuse liability study (pharmacokinetics) in adults with stimulant abuse history.
Data set [6] can be described thus: Pharmacokinetics of d-amphetamine in male and female beagle dogs after oral administration, […]. The following applies: oral […] d-amphetamine base.
[7] abbreviates: 10 N NaOH, elevated temperature.
The mark [8] stands for this setting: conc. HCl, about 90° C. for 1 hour, 0.4 mg/mL.

T1 sequence (Q01959 whole entry): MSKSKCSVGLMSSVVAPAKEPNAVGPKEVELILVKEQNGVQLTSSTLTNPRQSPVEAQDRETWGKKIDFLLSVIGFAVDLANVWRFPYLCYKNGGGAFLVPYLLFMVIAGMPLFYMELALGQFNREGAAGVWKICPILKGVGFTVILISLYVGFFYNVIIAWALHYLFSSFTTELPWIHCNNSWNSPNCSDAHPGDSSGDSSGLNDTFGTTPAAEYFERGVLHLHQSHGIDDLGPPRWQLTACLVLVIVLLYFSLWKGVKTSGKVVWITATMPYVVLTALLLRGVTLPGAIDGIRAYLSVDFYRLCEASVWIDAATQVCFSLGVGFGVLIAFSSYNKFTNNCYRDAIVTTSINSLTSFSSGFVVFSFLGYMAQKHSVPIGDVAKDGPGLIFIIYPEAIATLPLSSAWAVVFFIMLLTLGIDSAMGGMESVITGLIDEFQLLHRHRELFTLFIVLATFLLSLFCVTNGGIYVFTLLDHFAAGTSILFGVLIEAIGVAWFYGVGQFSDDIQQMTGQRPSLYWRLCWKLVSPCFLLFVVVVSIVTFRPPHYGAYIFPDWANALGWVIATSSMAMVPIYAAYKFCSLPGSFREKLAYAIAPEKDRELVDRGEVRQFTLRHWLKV

The term inhibition denotes the relative decrease from the control value, in per cent. As a reminder, the half-life is the time needed for the level to fall by half in the phase considered. High values mean slow loss, low ones fast loss. Regarding `CC(Cc1ccccc1)NC(=O)C(N)CCCCN` [L-lysine-d-amphetamine, 2,6-diaminohexanoic acid-(1-methyl-2-phenylethyl)-amide], the inhibition at 10 µM in data set [1] (10^−5 mol/L) was -0.71%. In addition, in data set [1] (10^−7 mol/L), the inhibition at 0.1 µM was 11.5%. Moreover, the inhibition at 0.001 µM in data set [1] (10^−9 mol/L) is -10.5%. Further, the “Specific binding to dopamine transport binding sites” value in data set [1] (10^−9 to 10^−5 M) is listed as “did not bind”. In addition, in data set [1] (DA Transporter, radioligand [3H]-WIN35428, 10^−9 to 10^−5 M), the Activity entry was “No (No activity is defined as producing between −20% and 20% inhibition of radioligand binding (Novascreen).)”. Further, the “Hydrolysis by commercial acids and bases” value in data set [2] (up to 24 h) is listed as “ineffective”. Moreover, the figures for the d-amphetamine release in data set [2] (Miracle-Gro®) and in data set [2] (Olympic® Deck Cleaner) were 7% and 4%, respectively. For the same compound, the d-amphetamine content released turned out to be 59% in data set [3] (50% sulfuric acid) and 85% in data set [3] (concentrated hydrochloric acid). Also, the d-amphetamine released entry in data set [3] (90° C.) and in data set [3] (ambient temperature) was “only a limited amount” throughout. Further, the Stability entry in data set [3] (reflux in concentrated H2SO4, 2 hours) is “complete decomposition”. Besides, the Hydrolysis in data set [3] (5 hours) worked out at 28%; in data set [3] (22 hours), 76%. The “% AUC Lys-Amp (HPLC)” value in data set [4] (setting [7]) came out at 99 % AUC; in data set [4] (setting [8]) it was 96 % AUC. For the same compound, the entries for the “% AUC d-amphetamine (HPLC)” value in data set [4] (setting [7]) and in data set [4] (setting [8]) were less than 1 % AUC and 4 % AUC, respectively. Further, the “d-amphetamine released under concentrated conditions” value in data set [4] (concentrated HCl, about 90° C., 1 hour, HPLC) is given as “only a minimal amount”. For the same compound, the Adverse reactions result in data set [5] (adults with stimulant abuse, oral, 30-150 mg) is listed as “mild in severity”. Also, the half-life in data set [5] (human, in vivo, po) is 26.4 to 45.6 min.

In the case of d-amphetamine, in data set [6] (Females), the Tmax of d-amphetamine came to 60 min and the “Tmax of d-amphetamine, Percent (of Amp)” value is reported as 100%. In addition, in data set [6] (Males), the Tmax of d-amphetamine worked out at 60 min and the “Tmax of d-amphetamine, Percent (of Amp)” value was determined as 100%.
